Measured values from patent US20030153618A1, “Treatment and prevention of herpes simplex infections” (priority 1999, published 2003).

How the values were obtained:
HSV, Type II = test: Direct plaque-forming unit (PFU) count in BSC cells in defined media with set lysine (or derivative):arginine ratio; format: cell-based; details: average of three tests
Experimental: Absorbed virons were absorbed in susceptible cells in chemically defined media and the number of plaques made were counted. (See Davis, B. D., et al., Microbiology, 2nd Ed., Harper & Row, 1973, Part V, and sources cited therein for procedural details and discussion of the plaque method.)
The cell line chosen was green monkey kidney cells (BSC) that have been passed greater than 41 times. […] The virons were added to a confluent lawn of BSC cells and allowed to absorb at 25° C. for one hour. The unabsorbed virons and the media were removed by washing three times in PBS. […] The control media contained a lysine/arginine ratio of 1:1. The plaques were counted when easily readable. Flasks are done in triplicate.

Herpes simplex II virus = test: Back titration plaque assay: PFU counts at stated amounts of compound under test and arginine; format: cell-based, Herpes simplex II virus (BSC cells)
Experimental: The following experiments were conducted by back titration: Herpes simplex II virus from laboratory stocks was used. BSC cells were grown to confluence in Eagles medium with 15% fetal calf serum, 150 units per milliliter of penicillin and 100 micrograms per milliliter of streptomycin. The cultures were inoculated with 500 PFU of HS II. The virons were allowed to absorb for one hour at 25° C. The tissue cultures were then washed three times with sterile PBS to remove excess media and non-absorbed virons. The cells were then incubated at 37° C. until four-plus cytopathic effects were observed. The cells were then disrupted by slow freeze-thaw two times. The suspension was then clarified by slow speed centrifugation at 4° C. The supemanant suspension was then added to confluent BSC cultures. After one hour absorption, the cells were washed with PBS twice. The cells were overlaid in defined reagent (in triplicate) Eagles media in noble agar. The cells were then incubated at 37° C. until the plaques were easily counted, usually 40 t 72 hours. the cells were then washed two times with PBS and then fixed with 10% H2CO and a 2% sodium acetate. The cells were then stained in 0.1% crystal violet in ethanol. In the tables which follow the concentration of the compound to be tested, in micrograms per milliliter, is listed across the top of the table and the concentration of arginine in micrograms per milliliter is listed down the left side of the table, the count of plaque-forming units being shown in the matrix.

Compound: CC(CCN)CC(N)C(=O)O (stereo not drawn) [4-Methyl lysine]
- P.F.U. Count (HSV, Type II; Compound Ratio to Arginine 10:1): 541
- P.F.U. Count (HSV, Type II; Compound Ratio to Arginine 100:1): 140
- P.F.U. Count (Herpes simplex II virus; compound 10 μg/ml, arginine 0 μg/ml): 37
- P.F.U. Count (Herpes simplex II virus; compound 10 μg/ml, arginine 2.5 μg/ml): 110
- P.F.U. Count (Herpes simplex II virus; compound 10 μg/ml, arginine 5.0 μg/ml): 3.7 × 10^3
- P.F.U. Count (Herpes simplex II virus; compound 10 μg/ml, arginine 7.5 μg/ml): 7.2 × 10^4
- P.F.U. Count (Herpes simplex II virus; compound 10 μg/ml, arginine 10 μg/ml): 9.6 × 10^4
- P.F.U. Count (Herpes simplex II virus; compound 10 μg/ml, arginine 15 μg/ml): 2.3 × 10^5
- P.F.U. Count (Herpes simplex II virus; compound 10 μg/ml, arginine 20 μg/ml): 3.1 × 10^5
- P.F.U. Count (Herpes simplex II virus; compound 10 μg/ml, arginine 25 μg/ml): 3.3 × 10^5
- P.F.U. Count (Herpes simplex II virus; compound 25 μg/ml, arginine 0 μg/ml): 10
- P.F.U. Count (Herpes simplex II virus; compound 25 μg/ml, arginine 2.5 μg/ml): 74
- P.F.U. Count (Herpes simplex II virus; compound 25 μg/ml, arginine 5.0 μg/ml): 310
- P.F.U. Count (Herpes simplex II virus; compound 25 μg/ml, arginine 7.5 μg/ml): 6.6 × 10^4
- P.F.U. Count (Herpes simplex II virus; compound 25 μg/ml, arginine 10 μg/ml): 8.7 × 10^4
- P.F.U. Count (Herpes simplex II virus; compound 25 μg/ml, arginine 15 μg/ml): 9.6 × 10^4
- P.F.U. Count (Herpes simplex II virus; compound 25 μg/ml, arginine 20 μg/ml): 3.3 × 10^5
- P.F.U. Count (Herpes simplex II virus; compound 25 μg/ml, arginine 25 μg/ml): 3.4 × 10^5
- P.F.U. Count (Herpes simplex II virus; compound 50 μg/ml, arginine 0 μg/ml): 0
- P.F.U. Count (Herpes simplex II virus; compound 50 μg/ml, arginine 2.5 μg/ml): 0
- P.F.U. Count (Herpes simplex II virus; compound 50 μg/ml, arginine 5.0 μg/ml): 671
- P.F.U. Count (Herpes simplex II virus; compound 50 μg/ml, arginine 7.5 μg/ml): 5.0 × 10^4
- P.F.U. Count (Herpes simplex II virus; compound 50 μg/ml, arginine 10 μg/ml): 7.0 × 10^4
- P.F.U. Count (Herpes simplex II virus; compound 50 μg/ml, arginine 15 μg/ml): 7.9 × 10^4
- P.F.U. Count (Herpes simplex II virus; compound 50 μg/ml, arginine 20 μg/ml): 3.1 × 10^5
- P.F.U. Count (Herpes simplex II virus; compound 50 μg/ml, arginine 25 μg/ml): 3.6 × 10^5
- P.F.U. Count (Herpes simplex II virus; compound 100 μg/ml, arginine 0 μg/ml): 0
- P.F.U. Count (Herpes simplex II virus; compound 100 μg/ml, arginine 2.5 μg/ml): 0
- P.F.U. Count (Herpes simplex II virus; compound 100 μg/ml, arginine 5.0 μg/ml): 371
- P.F.U. Count (Herpes simplex II virus; compound 100 μg/ml, arginine 7.5 μg/ml): 4.2 × 10^4
- P.F.U. Count (Herpes simplex II virus; compound 100 μg/ml, arginine 10 μg/ml): 4.0 × 10^7
- P.F.U. Count (Herpes simplex II virus; compound 100 μg/ml, arginine 15 μg/ml): 5.0 × 10^4
- P.F.U. Count (Herpes simplex II virus; compound 100 μg/ml, arginine 20 μg/ml): 3.6 × 10^5
- P.F.U. Count (Herpes simplex II virus; compound 100 μg/ml, arginine 25 μg/ml): 3.1 × 10^5
- P.F.U. Count (Herpes simplex II virus; compound 200 μg/ml, arginine 0 μg/ml): 0
- P.F.U. Count (Herpes simplex II virus; compound 200 μg/ml, arginine 2.5 μg/ml): 0
- P.F.U. Count (Herpes simplex II virus; compound 200 μg/ml, arginine 5.0 μg/ml): 191
- P.F.U. Count (Herpes simplex II virus; compound 200 μg/ml, arginine 7.5 μg/ml): 1.0 × 10^4
- P.F.U. Count (Herpes simplex II virus; compound 200 μg/ml, arginine 10 μg/ml): 1.8 × 10^4
- P.F.U. Count (Herpes simplex II virus; compound 200 μg/ml, arginine 15 μg/ml): 6.8 × 10^4
- P.F.U. Count (Herpes simplex II virus; compound 200 μg/ml, arginine 20 μg/ml): 3.2 × 10^5
- P.F.U. Count (Herpes simplex II virus; compound 200 μg/ml, arginine 25 μg/ml): 3.0 × 10^5
- P.F.U. Count (Herpes simplex II virus; compound 300 μg/ml, arginine 0 μg/ml): 0
- P.F.U. Count (Herpes simplex II virus; compound 300 μg/ml, arginine 2.5 μg/ml): 0
- P.F.U. Count (Herpes simplex II virus; compound 300 μg/ml, arginine 5.0 μg/ml): 169
- P.F.U. Count (Herpes simplex II virus; compound 300 μg/ml, arginine 7.5 μg/ml): 1.1 × 10^7
- P.F.U. Count (Herpes simplex II virus; compound 300 μg/ml, arginine 10 μg/ml): 1.9 × 10^4
- P.F.U. Count (Herpes simplex II virus; compound 300 μg/ml, arginine 15 μg/ml): 2.7 × 10^4
- P.F.U. Count (Herpes simplex II virus; compound 300 μg/ml, arginine 20 μg/ml): 3.1 × 10^5
- P.F.U. Count (Herpes simplex II virus; compound 300 μg/ml, arginine 25 μg/ml): 3.3 × 10^5
- P.F.U. Count (Herpes simplex II virus; compound 400 μg/ml, arginine 0 μg/ml): 0
- P.F.U. Count (Herpes simplex II virus; compound 400 μg/ml, arginine 2.5 μg/ml): 0
- P.F.U. Count (Herpes simplex II virus; compound 400 μg/ml, arginine 5.0 μg/ml): 671
- P.F.U. Count (Herpes simplex II virus; compound 400 μg/ml, arginine 7.5 μg/ml): 1.9 × 10^3
- P.F.U. Count (Herpes simplex II virus; compound 400 μg/ml, arginine 10 μg/ml): 1.7 × 10^4
- P.F.U. Count (Herpes simplex II virus; compound 400 μg/ml, arginine 15 μg/ml): 2.0 × 10^4
- P.F.U. Count (Herpes simplex II virus; compound 400 μg/ml, arginine 20 μg/ml): 3.0 × 10^5
- P.F.U. Count (Herpes simplex II virus; compound 400 μg/ml, arginine 25 μg/ml): 3.3 × 10^5
- P.F.U. Count (Herpes simplex II virus; compound 500 μg/ml, arginine 0 μg/ml): 0
- P.F.U. Count (Herpes simplex II virus; compound 500 μg/ml, arginine 2.5 μg/ml): 0
- P.F.U. Count (Herpes simplex II virus; compound 500 μg/ml, arginine 5.0 μg/ml): 239
- P.F.U. Count (Herpes simplex II virus; compound 500 μg/ml, arginine 7.5 μg/ml): 6.7 × 10^3
- P.F.U. Count (Herpes simplex II virus; compound 500 μg/ml, arginine 10 μg/ml): 1.3 × 10^4
- P.F.U. Count (Herpes simplex II virus; compound 500 μg/ml, arginine 15 μg/ml): 1.4 × 10^4
- P.F.U. Count (Herpes simplex II virus; compound 500 μg/ml, arginine 20 μg/ml): 2.4 × 10^5
- P.F.U. Count (Herpes simplex II virus; compound 500 μg/ml, arginine 25 μg/ml): 2.9 × 10^5
